Data from ChEMBL document CHEMBL1201862, “PubChem BioAssay data set” (2004).
Active and inactive are the calls of the source.

Tests used:
[1] = target: T1, RNA-binding protein pos-1 (Caenorhabditis elegans, UniProt G5EF15); assay: inhibitors of POS-1/mex-3 RNA binding, dose response, biochemical, fluorescence polarization (AID 1964);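 further: purified POS-1 fused to maltose binding protein made in E. coli; potency of compounds blocking POS-1 binding to fluorescent RNA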
T1 sequence (G5EF15 whole entry): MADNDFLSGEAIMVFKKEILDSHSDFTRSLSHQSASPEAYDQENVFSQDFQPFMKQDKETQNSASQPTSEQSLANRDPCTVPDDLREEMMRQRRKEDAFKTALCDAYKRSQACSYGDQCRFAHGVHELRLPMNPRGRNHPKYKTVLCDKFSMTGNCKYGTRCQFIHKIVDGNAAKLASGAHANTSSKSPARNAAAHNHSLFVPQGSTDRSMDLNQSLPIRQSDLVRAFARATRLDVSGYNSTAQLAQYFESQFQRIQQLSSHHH

[2] = target: T2, Zinc finger protein mex-5 (Caenorhabditis elegans, UniProt Q9XUB2); assay: MEX-5/TCR-2 RNA interaction inhibitors, dose response, biochemical, C. elegans, fluorescence polarization (AID 1960)
T2 sequence (Q9XUB2 whole entry): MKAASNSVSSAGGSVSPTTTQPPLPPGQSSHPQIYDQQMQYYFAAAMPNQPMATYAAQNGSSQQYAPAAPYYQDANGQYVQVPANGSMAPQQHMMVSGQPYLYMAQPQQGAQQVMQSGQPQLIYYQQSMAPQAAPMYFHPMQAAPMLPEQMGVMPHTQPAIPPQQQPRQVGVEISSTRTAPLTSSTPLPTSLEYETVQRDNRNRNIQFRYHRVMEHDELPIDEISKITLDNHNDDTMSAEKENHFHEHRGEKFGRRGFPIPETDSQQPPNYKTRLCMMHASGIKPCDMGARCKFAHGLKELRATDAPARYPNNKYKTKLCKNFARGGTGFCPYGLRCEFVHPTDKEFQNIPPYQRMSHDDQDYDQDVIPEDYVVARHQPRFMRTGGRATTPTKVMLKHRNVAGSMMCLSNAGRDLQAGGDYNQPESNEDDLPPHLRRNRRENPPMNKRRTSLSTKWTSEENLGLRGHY

[3] = target: T3, Heat shock factor protein 1 (Mus musculus, UniProt P38532); assay: inhibition of MG132-induced HSE-luciferase signal, confirmation, cell-based, NIH3T3, luminescence, dose retest (AID 2382); assay type: functional;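 further: NIH3T3 fibroblasts with HSF1-driven luciferase reporter stressed by proteasome inhibitor MG132; luminescence from HSF1-driven luciferase expression after 8 hours of MG132 stress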
T3 sequence (P38532 whole entry): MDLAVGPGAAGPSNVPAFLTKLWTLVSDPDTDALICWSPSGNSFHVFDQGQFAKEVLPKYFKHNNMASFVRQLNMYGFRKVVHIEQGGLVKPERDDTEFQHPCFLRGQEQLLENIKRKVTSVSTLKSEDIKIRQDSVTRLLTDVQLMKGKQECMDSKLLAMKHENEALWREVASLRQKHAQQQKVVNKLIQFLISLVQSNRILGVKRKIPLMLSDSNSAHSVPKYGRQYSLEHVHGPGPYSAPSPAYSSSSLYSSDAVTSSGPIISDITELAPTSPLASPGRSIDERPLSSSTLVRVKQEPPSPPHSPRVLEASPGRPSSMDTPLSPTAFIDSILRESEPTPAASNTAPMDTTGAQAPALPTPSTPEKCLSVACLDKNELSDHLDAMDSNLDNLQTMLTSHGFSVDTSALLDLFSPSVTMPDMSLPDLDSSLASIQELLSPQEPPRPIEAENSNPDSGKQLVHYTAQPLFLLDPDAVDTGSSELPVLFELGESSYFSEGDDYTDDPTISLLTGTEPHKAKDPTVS

[4] = target: T4, Replicative DNA helicase DnaB (Mycobacterium tuberculosis, UniProt P9WMR3); assay: DnaB intein splicing inhibitors, dose response, biochemical, cell-free fluorescence (AID 449749); assay type: functional
T4 sequence (P9WMR3 whole entry): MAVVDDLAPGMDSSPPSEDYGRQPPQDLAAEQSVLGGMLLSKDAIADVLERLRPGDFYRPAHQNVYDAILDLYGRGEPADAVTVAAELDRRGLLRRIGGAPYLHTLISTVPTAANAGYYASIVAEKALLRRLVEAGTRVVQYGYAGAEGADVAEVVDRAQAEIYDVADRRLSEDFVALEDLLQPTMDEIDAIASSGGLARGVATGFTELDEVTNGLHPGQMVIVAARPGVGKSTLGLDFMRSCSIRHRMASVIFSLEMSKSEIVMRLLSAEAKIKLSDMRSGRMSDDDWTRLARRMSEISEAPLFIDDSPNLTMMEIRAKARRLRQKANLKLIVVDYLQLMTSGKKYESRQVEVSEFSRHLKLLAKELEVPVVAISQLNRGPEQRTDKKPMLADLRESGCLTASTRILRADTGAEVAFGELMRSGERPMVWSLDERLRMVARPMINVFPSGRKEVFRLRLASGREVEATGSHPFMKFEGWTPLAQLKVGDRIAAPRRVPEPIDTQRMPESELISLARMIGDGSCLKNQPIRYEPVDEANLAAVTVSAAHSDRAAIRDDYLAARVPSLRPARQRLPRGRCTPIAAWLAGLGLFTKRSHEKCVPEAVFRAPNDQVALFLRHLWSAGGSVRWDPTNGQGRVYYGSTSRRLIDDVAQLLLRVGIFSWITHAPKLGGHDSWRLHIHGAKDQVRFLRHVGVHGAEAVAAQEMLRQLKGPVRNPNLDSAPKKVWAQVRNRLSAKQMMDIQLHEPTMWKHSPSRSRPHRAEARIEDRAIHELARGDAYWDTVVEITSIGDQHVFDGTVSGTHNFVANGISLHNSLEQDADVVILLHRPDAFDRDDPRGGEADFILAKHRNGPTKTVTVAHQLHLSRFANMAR

Protein RecA = target: T5, Protein RecA (Mycobacterium tuberculosis, UniProt P9WHJ3); assay: Fluorescence Cell-Free Homogeneous Dose Retest to Identify Inhibitors of RecA-Intein Splicing Activity. [Related pubchem assays (depositor defined):AID2097, AID2223, AID489010, AID492950]; assay type: functional
T5 sequence (P9WHJ3 whole entry): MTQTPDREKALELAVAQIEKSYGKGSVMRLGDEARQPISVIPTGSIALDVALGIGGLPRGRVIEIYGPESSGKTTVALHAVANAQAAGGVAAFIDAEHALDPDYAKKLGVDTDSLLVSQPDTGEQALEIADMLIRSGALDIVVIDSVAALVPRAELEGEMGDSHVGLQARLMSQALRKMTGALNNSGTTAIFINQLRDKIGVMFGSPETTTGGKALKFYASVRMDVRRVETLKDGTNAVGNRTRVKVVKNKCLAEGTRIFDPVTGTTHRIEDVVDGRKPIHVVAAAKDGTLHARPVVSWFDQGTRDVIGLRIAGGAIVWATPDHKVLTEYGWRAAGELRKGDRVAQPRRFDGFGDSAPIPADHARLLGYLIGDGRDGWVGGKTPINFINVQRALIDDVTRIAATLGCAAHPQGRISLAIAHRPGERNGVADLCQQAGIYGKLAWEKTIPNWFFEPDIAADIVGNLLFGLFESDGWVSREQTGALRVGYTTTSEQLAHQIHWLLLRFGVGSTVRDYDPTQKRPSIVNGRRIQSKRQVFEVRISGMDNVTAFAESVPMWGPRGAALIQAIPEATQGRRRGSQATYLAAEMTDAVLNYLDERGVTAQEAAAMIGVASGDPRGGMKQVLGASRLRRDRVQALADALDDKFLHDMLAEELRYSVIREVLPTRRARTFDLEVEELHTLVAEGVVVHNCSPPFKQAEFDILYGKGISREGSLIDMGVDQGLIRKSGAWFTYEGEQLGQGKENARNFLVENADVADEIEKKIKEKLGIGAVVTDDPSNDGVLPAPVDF

[5] = target: T6, Carboxy-terminal domain RNA polymerase II polypeptide A small phosphatase 1 (Homo sapiens, UniProt Q9GZU7); assay: inhibitors of CTDSP1, concentration-response testing, biochemical assay, absorbance-based, actives from ultra-high-throughput screening (AID 540297); assay type: functional
T6 sequence (Q9GZU7 whole entry): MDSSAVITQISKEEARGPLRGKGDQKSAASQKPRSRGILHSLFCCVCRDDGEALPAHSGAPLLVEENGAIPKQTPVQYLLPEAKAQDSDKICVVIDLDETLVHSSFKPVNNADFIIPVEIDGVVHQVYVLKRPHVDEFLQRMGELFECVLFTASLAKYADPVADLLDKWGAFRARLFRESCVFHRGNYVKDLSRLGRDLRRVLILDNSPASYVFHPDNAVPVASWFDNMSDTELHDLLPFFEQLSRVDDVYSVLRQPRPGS

[6] = HEp-2 cell cytotoxicity, dose response, cytotoxicity control for RSV inhibitor project, HTS (AID 2410); assay type: functional; conditions: human respiratory syncytial virus
H4 = assay: Luminescence Cell-Based Dose Response HTS to Identify Activators of 5'UTR Stem-Loop Driven Prion Protein mRNA Translation in H4 Neuroglioblastoma Cells. [Related pubchem assays: 1829 (Project Summary), 1814 (Primary HTS)]; assay type: functional; conditions: Homo sapiens
[7] = Luminescence Cell-Based Dose Response HTS to Identify Activators of Luciferase Translation or Activity in H4 […] Cells. [Related pubchem assays: 1829 (Project Summary), 1814 (Primary HTS)]; assay type: functional
Cytochrome P450 2C9 = Cytochrome P450 2C9 (Homo sapiens, UniProt P11712)
Cytochrome P450 3A4 = Cytochrome P450 3A4 (Homo sapiens, UniProt P08684);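 further: CYP3A4 tested as one member of a cytochrome P450 panel screen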
H9c2 = assay: cells; assay type: functional, cell-based; conditions: Rattus norvegicus, H9c2, Myocardium
[8] = control 3'UTR Renilla luciferase suppression, dose response, counter-screen for Shn3 inhibitor project, cell-based, Clone20-Shn3RL, cherry-picked (AID 624133); assay type: functional
[9] = Shn3 3'UTR reporter inhibitors, dose response, cell-based, Clone20 osteoblasts, firefly luciferase, cherry-picked (AID 624132); assay type: functional;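 further: firefly luciferase luminescence from reporter carrying the Shn3 3'UTR in osteoblasts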
[10] = HepG2 cell cytotoxicity, dose response, cytotoxicity control for Shn3 inhibitor project, CellTiter-Glo, cherry-picked (AID 624134); assay type: functional, cell-based
[11] = growth suppression of PTEN-null colon cells, dose response, cell-based, HCT116 PTEN knockout (AID 1047); assay type: functional;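 further: HCT116 colon tumor cells with PTEN knocked out; cells exposed to compound for 60 hours before readout; potency for loss of cell viability measured by luminescence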
[12] = growth suppression of beta-catenin-knockout colon cells, dose response, cell-based, HCT116, human colon tumor (AID 1045); assay type: functional;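 further: HCT116 colon tumor cells with beta catenin knocked out; cells exposed to compound for 60 hours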

Sequence of Cytochrome P450 3A4 (P08684 whole entry): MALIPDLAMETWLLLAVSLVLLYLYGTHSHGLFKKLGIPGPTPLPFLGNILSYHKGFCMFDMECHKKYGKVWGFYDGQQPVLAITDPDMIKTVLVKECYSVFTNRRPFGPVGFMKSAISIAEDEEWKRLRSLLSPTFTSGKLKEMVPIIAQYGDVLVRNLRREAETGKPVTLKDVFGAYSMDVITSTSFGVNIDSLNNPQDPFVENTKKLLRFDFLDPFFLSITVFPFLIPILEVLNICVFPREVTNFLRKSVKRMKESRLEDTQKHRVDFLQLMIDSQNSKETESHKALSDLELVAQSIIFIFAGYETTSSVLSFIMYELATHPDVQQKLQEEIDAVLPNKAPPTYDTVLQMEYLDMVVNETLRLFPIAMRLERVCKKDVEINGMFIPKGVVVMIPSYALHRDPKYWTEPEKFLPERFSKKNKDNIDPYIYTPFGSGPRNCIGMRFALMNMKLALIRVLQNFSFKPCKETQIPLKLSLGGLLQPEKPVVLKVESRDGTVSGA
Sequence of Cytochrome P450 2C9 (P11712 whole entry): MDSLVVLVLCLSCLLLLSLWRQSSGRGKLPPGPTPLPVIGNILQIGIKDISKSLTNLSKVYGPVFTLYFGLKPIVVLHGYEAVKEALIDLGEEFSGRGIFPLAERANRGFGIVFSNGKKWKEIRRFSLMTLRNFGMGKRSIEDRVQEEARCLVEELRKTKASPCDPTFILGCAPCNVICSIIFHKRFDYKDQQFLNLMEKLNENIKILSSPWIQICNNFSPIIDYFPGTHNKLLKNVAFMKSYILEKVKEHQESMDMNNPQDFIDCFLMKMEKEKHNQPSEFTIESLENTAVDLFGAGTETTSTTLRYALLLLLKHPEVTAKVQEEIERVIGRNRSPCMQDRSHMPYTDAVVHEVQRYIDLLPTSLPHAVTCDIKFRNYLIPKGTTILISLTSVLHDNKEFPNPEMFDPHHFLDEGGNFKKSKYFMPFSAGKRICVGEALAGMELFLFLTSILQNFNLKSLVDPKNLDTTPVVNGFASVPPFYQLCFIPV

## Cc1sc(-c2ccccn2)nc1OC(=O)c1cccc(Cl)c1Cl
[1]
  EC50: > 300 µM (not active)
[2]
  EC50: > 300 µM (not active)

## COc1ccccc1/C=C/CN1CCC(Oc2cc(C(=O)NC3CC3)ccc2OC)CC1
[3]
  EC50: > 195 µM (not active)

## O=C(COC(=O)c1ccc2c(c1Cl)C(=O)c1ccccc1C2=O)NC1CC1
[4]
  AC50: 26.2 µM (active)
Protein RecA
  EC50: 12.9 µM (active)

## O=C(O)CSc1ccccc1C(=O)O
[3]
  EC50: > 195 µM (not active)

## COC(=O)C1=C(COc2ccccc2)NC(=O)NC1c1ccc2ccccc2c1 (stereo unspecified)
[5]
  IC50: 13.8 µM (active)

## Cc1ccccc1NC(=O)CN1C(=O)S/C(=C\c2cccn2-c2cccc(C(=O)O)c2)C1=O
[1]
  EC50: > 300 µM (not active)
[5]
  IC50: 4.23 µM (active)
[2]
  EC50: > 300 µM (not active)

## COc1cccc(-n2c(N)c(-c3nc4ccccc4[nH]3)sc2=S)c1
[3]
  EC50: > 195 µM (not active)

## O=C(COC(=O)C1CCCC1)Nc1ncc(Cl)cc1Cl
[1]
  EC50: > 300 µM (not active)
[2]
  EC50: 34.3 µM (active)

## CCCOc1ccc(C(=O)C2=C(O)C(=O)N(CCN(C)C)C2c2ccc(O)c(OC)c2)cc1 (stereo unspecified)
[3]
  EC50: > 195 µM (not active)

## Cc1nc2c(ncn2-c2ccccc2)c(=O)n1NC(=O)CN1CCOCC1
[3]
  EC50: > 195 µM (not active)

## CCOC(=O)c1c(C)oc2c1c1c(c3ccccc32)OCN(CCCC(=O)O)C1
[6]
  CC50: 43.6 µM (active)
H4
  EC50: 11 µM (active)
[7]
  EC50: 22.8 µM (active)
[4]
  AC50: > 120 µM (inactive)
Protein RecA
  EC50: 4.11 µM (active)

## Cc1cc(N2CCC(C)CC2)n2ncc(-c3ccccc3)c2n1
[3]
  EC50: < 0.16 µM (active)

## O=C1CCN(S(=O)(=O)c2ccccc2)N1
Cytochrome P450 2C9
  AC50: 12.6 µM (inconclusive)
[4]
  AC50: 31.2 µM (active)
Cytochrome P450 3A4
  AC50: 28.2 µM (inconclusive)
Protein RecA
  EC50: 3.73 µM (active)

## O=C(N/N=C/c1ccccn1)c1cc(-c2ccc(Br)s2)n[nH]1
[5]
  IC50: 8.5 µM (active)

## O=C(COC(=O)CCc1nc(O)c2ccccc2n1)Nc1c(Cl)cccc1C(F)(F)F
[3]
  EC50: > 195 µM (not active)
H9c2
  IC50: > 79 µM (inactive)

## C#CCOc1ccc(Br)cc1C(c1c(C)n[nH]c1O)c1c(C)n[nH]c1O
[4]
  AC50: 0.973 µM (active)
Protein RecA
  EC50: 1.03 µM (active)

## NN1C(=O)/C(=C2/Sc3ccccc3N2CCCS(=O)(=O)O)SC1=S
[5]
  IC50: 8.53 µM (active)

## Cc1cc2cc(CN(CC3CCCO3)C(S)=Nc3ccccc3)c(O)nc2cc1C (stereo unspecified)
[8]
  AC50: 9.59 µM (active)
[9]
  AC50: 2.91 µM (active)
[10]
  AC50: 48.9 µM (active)
[11]
  EC50: 4.38 µM (active)
[12]
  EC50: 5.3 µM (active)

## COc1cccc(C(=O)c2cn(CC(=O)NCc3ccco3)c3nc(C)ccc3c2=O)c1
[5]
  IC50: 11.2 µM (active)

## Cc1ccc(C2C(C#N)=C(N)Oc3[nH]nc(C)c32)cc1 (stereo unspecified)
[4]
  AC50: 7.89 µM (active)
Protein RecA
  EC50: 3.56 µM (active)

## COCCN1CCC(CNCc2c(C(=O)N3CCCCC3)nc3c(C)cccn23)C1 (stereo unspecified)
[1]
  EC50: > 300 µM (not active)
[2]
  EC50: > 300 µM (not active)

## CCCc1n[nH]c2c1C(c1cccc(OC(=O)c3ccco3)c1)C(C#N)=C(N)O2 (stereo unspecified)
[4]
  AC50: 5.48 µM (active)
Protein RecA
  EC50: 4.91 µM (active)

## Cc1cc(Cl)ccc1OC(C)C(=O)NC(C)C1CCCO1 (stereo unspecified)
[3]
  EC50: > 195 µM (not active)

## O=C(Nc1ccnn1C1CCN(CC2CC=CCC2)CC1)c1ccccc1 (stereo unspecified)
[1]
  EC50: 43.2 µM (active)
[2]
  EC50: 52.3 µM (active)

## Cc1cccc(C)c1NC(=O)CN1C(=O)S/C(=C\c2cccn2-c2cccc(C(=O)O)c2)C1=O
[1]
  EC50: > 300 µM (not active)
[5]
  IC50: 6.71 µM (active)
[2]
  EC50: 60 µM (active)

## CCc1ccc(OCc2cccc(C(=O)N/N=C\c3cnn(C)c3C)c2)cc1
[5]
  IC50: 9.07 µM (active)

## CCOC(=O)c1ccc(NC(=O)CC2COc3ccccc3O2)cc1 (stereo unspecified)
[3]
  EC50: > 195 µM (not active)
